Data published in patent US11236078B2, “Heterocyclic inhibitors of the sodium channel” (priority 2014, dated 2022).

Key:
Format in all cases: cell-based
[1] = biological target: T1, human Nav1.7 (hNav1.7) (Homo sapiens, UniProt Q15858); assay: hNav1.7 slow inactivation block, automated patchclamp; conditions: HEK 293F cells stably expressing hNav1.7, slow inactivation induced in approximately 50% of channels
T1 construct: expressed in transfected cells
Text: (§1) The generation of HEK 293F cell lines stably expressing human Nav1.7 (h Nav1.7), human Nav1.5 (hNav1.5) and rat Nav1.2 (r Nav1.2) was achieved by subcloning SCN9A, SCN5A, and SCN2A genes into inducible expression vectors followed by transfection into target cells using standard techniques. In the case of h Nav1.7, an expression vector encoding the human Navβ1 auxiliary subunit gene, SCN1B, was co-transfected with the expression vector bearing the SCN9A gene. Clones were selected using appropriate selection agents (0.3 mg/mL Zeocin and 0.8 mg/mL Geneticin) and maintained in Dulbecco's Modified Eagle medium, 10% fetal bovine serum, 1% non-essential amino acids to ˜80% confluence at 37° C. in a humidified incubator with 95% atmosphere and 5% CO2.
(§2) On the day of each experiment, cells that were grown to 80% confluence in a T75 flask were harvested for use on PatchXpress (Molecular Devices, CA, USA). Following a recovery period at 37° C. in a humidified incubator with 95% atmosphere and 5% CO2 in Dulbecco's Modified Eagle Medium, the media was replaced with an external recording solution containing (in mM): 90 TEACl, 50 NaCl, 1.8 CaCl2, 1 MgCl2, 10 HEPES, 10 glucose, adjusted to pH 7.4 with TEAOH and 300 mOsm with sucrose. The internal recording solution contained (in mM): 129 CsF, 2 MgCl2, 11 EGTA, 10 HEPES, 6 NaCl, 3 Na2ATP adjusted to pH 7.2 with CsOH and 280 mOsm with sucrose. The automated liquid handling facility of PatchXpress dispensed cells and added compound. Modulation of Nav1.7 channels by compounds was assessed by promoting the channels into the inactivated state using a conditioning voltage pulse of variable amplitude, followed by a brief hyperpolarizing pulse with a subsequent depolarized voltage step to measure the current amplitude in the presence and absence of compound.
(§3) In some cases, the potency of compounds was measured using either the Patchliner automated patch clamp platform (Nanion) or manual patch clamp techniques. Both approaches allowed the compounds to be characterized based upon the ability of a compound to modulate use- and/or state-dependence across human Nav1.7 (hNav1.7), human Nav1.5 (hNav1.5) and rat Nav1.2 (rNav1.2). The potency data is tabulated in Table 2 and is represented by six data fields. Three of the six fields represent potency data measured with the Patchliner automated platform under varying use- and state-dependent electrophysiology protocols similar to the PatchXpress protocols detailed above. For example, the second data column describes the potency of compounds in their ability to block 50% of Nav1.7 channels when the channel is repetitively activated by depolarizing voltage potentials to induce slow inactivation in approximately 50% of channels (Table 2: h Nav1.7: IC50 Slow Inactivation Block, Automated Patchclamp). The next three data fields describe the data generated from manual patchclamp electrophysiology measurements using similar methods to those employed for automated patchclamp studies.

[2] = biological target: T2, rat Nav1.2 (rNav1.2) (Rattus norvegicus, UniProt P04775); assay: rNav1.2 slow inactivation block, manual patchclamp; conditions: HEK 293F cells stably expressing rNav1.2
T2 construct: expressed in transfected cells
Text: as §1, §2, §3

[3] = biological target: T1, human Nav1.7 (hNav1.7); assay: hNav1.7 slow inactivation block, manual patchclamp; conditions: HEK 293F cells stably expressing hNav1.7, slow inactivation induced in approximately 50% of channels
Text: as §1, §2, §3

[4] = biological target: T2, rat Nav1.2 (rNav1.2); assay: rNav1.2 slow inactivation block, automated patchclamp; conditions: HEK 293F cells stably expressing rNav1.2
Text: as §1, §2, §3

[5] = biological target: T3, human Nav1.5 (hNav1.5) (Homo sapiens, UniProt Q14524); assay: hNav1.5 slow inactivation block, manual patchclamp; conditions: HEK 293F cells stably expressing hNav1.5
T3 construct: expressed in transfected cells
Text: as §1, with “CO2. […]” for “CO2.”
as §2, §3

T2 sequence (P04775 whole entry): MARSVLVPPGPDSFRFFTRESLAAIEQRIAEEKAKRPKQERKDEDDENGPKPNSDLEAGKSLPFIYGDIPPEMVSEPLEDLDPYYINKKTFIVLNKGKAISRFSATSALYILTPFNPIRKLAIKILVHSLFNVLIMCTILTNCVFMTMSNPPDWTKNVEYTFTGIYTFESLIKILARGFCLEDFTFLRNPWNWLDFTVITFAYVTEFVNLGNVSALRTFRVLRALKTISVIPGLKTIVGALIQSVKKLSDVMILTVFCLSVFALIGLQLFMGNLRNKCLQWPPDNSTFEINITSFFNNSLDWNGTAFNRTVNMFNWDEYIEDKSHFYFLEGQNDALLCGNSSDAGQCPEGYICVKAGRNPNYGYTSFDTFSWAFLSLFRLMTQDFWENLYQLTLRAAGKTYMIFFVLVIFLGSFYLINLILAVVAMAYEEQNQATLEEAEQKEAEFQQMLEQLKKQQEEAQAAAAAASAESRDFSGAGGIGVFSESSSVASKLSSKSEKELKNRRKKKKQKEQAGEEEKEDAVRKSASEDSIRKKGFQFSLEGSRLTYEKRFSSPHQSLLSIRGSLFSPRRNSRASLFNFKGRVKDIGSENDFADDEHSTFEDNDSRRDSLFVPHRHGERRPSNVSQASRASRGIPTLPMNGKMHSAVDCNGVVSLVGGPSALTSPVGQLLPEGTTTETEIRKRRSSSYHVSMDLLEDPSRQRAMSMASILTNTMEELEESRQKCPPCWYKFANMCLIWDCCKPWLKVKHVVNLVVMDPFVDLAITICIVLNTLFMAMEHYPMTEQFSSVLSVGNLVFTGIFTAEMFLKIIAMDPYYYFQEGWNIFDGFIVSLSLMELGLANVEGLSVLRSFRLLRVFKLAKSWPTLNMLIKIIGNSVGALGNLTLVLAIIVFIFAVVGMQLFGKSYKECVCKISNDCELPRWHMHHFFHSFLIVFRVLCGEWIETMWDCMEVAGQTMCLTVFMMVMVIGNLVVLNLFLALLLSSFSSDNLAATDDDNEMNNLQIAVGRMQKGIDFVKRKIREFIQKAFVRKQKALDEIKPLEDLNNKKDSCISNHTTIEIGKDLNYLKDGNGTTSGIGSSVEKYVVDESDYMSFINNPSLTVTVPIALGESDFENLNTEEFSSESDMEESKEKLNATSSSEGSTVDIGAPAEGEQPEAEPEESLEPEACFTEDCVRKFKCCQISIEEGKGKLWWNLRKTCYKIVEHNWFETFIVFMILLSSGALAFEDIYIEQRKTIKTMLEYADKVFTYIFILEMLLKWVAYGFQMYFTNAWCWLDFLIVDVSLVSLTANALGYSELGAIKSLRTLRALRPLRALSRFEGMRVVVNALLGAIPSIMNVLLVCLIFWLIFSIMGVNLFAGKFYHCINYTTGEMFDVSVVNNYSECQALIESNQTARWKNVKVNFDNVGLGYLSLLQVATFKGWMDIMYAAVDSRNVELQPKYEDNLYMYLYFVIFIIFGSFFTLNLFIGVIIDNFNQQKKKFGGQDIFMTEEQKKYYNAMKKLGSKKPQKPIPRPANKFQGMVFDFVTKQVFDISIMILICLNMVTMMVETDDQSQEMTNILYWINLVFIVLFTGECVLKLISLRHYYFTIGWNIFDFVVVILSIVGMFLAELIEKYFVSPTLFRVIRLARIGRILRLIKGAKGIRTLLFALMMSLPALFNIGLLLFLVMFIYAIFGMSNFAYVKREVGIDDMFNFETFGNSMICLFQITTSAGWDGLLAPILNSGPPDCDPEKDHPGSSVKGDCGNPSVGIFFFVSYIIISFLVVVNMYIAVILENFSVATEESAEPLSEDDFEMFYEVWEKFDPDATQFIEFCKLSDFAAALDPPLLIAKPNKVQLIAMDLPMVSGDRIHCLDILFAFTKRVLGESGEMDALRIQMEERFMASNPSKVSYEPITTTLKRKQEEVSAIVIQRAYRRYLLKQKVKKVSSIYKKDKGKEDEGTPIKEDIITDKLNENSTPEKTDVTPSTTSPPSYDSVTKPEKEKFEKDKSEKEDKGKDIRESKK
T1 sequence (Q15858 whole entry): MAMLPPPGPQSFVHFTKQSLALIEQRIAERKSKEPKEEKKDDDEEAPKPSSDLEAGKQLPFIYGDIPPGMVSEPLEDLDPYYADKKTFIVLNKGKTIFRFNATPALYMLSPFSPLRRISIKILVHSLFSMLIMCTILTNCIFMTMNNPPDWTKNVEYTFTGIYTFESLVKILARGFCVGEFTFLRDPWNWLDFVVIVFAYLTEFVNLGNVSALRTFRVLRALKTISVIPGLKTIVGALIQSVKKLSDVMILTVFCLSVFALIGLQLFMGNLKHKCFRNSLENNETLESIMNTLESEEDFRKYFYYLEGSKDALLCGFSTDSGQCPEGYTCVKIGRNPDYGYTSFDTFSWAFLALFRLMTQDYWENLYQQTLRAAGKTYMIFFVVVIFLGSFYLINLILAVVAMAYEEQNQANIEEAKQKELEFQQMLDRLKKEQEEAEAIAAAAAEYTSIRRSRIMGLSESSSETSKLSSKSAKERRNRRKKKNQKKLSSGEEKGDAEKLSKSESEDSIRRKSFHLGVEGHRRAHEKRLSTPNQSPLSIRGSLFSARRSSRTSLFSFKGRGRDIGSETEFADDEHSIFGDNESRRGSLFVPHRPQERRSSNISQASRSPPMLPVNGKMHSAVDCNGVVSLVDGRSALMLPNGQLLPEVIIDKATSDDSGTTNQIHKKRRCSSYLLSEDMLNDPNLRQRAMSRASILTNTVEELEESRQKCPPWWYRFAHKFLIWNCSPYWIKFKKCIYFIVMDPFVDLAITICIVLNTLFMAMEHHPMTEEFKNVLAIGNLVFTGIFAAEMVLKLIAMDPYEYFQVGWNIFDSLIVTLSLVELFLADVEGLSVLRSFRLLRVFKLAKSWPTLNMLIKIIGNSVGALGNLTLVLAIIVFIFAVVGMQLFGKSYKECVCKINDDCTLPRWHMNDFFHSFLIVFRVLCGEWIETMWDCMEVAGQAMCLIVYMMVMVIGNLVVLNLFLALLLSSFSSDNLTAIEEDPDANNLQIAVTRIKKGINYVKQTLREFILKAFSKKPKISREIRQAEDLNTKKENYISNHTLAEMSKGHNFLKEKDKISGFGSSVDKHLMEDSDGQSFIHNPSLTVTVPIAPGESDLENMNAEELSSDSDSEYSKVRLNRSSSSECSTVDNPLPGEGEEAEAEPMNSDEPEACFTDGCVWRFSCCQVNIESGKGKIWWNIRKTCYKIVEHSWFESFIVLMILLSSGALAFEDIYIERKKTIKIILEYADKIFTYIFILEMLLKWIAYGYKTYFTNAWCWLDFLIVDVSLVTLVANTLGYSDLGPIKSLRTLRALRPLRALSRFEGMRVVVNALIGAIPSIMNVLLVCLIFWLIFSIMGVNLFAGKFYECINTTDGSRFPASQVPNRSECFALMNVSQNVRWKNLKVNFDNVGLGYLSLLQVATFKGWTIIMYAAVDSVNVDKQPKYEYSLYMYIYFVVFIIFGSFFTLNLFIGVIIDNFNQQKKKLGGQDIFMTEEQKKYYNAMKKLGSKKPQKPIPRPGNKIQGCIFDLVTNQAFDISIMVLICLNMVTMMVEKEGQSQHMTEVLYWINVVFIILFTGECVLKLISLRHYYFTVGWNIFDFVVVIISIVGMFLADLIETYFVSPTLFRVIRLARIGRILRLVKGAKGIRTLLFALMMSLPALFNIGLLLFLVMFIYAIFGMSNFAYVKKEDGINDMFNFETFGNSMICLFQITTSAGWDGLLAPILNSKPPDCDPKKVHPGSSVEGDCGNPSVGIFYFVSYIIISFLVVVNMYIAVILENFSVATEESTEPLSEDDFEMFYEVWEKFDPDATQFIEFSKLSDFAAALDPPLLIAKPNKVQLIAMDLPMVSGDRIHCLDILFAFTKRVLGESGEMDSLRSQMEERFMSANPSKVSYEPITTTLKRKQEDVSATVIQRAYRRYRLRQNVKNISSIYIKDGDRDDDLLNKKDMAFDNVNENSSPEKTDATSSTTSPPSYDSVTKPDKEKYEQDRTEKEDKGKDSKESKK
T1 sequence (Q07699 19-218 partner): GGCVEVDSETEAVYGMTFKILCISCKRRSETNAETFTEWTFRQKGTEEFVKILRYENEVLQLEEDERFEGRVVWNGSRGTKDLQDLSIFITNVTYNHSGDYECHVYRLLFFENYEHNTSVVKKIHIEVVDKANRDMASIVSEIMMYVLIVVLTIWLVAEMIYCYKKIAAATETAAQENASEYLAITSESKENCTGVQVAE

| SMILES | IC50 [1] [nM] | IC50 [2] [nM] | IC50 [3] [nM] | IC50 [4] [nM] | IC50 [5] [nM] |
| --- | --- | --- | --- | --- | --- |
| O=C(NCc1cc(F)c(Oc2cc(C(F)(F)F)cc(C(F)(F)F)c2)cc1F)[C@@H]1CCCN1 [Compound 4, (2S)-N-({4-[3,5-bis(trifluoromethyl)phenoxy]-2,5-difluorophenyl}methyl)pyrrolidine-2-carboxamide] | 977 | 146 | 217 | 1870 | 116 |
| O=S(=O)(Nc1ncns1)c1cc(F)c(Oc2cc(F)cc(C(F)(F)F)c2)cc1F [Compound 32, 2,5-difluoro-4-(3-fluoro-5-(trifluoromethyl)phenoxy)-N-(1,2,4-thiadiazol-5-yl)benzenesulfonamide] | ~21100 | > 10000 | 942 | > 32000 |  |
| O=S(=O)(Nc1ncns1)c1cc(F)c(Oc2cc(C(F)(F)F)cc(C(F)(F)F)c2)cc1F [Compound 5, 4-[3,5-bis(trifluoromethyl)phenoxy]-2,5-difluoro-N-(1,2,4-thiadiazol-5-yl)benzene-1-sulfonamide] | 7250 | 19400 | 393 |  | 16600 |
| O=C(Cc1cccc(-c2cc(C(F)(F)F)cc(C(F)(F)F)c2)c1)Nc1ncns1 [Compound 21, 2-{3-[3,5-bis(trifluoromethyl)phenyl]phenyl}-N-(1,2,4-thiadiazol-5-yl)acetamide] |  | ~389 | ~383 |  | 550 |
| O=C(NCc1cc(F)c(Oc2cc(C(F)(F)F)cc(C(F)(F)F)c2)cc1F)c1nncs1 [Compound 19, N-({4-[3,5-bis(trifluoromethyl)phenoxy]-2,5-difluorophenyl}methyl)-1,3,4-thiadiazole-2-carboxamide] | ~10200 | ~1250 | 1380 | 5660 |  |
| NC(=O)c1cc(Oc2cc(F)c(S(=O)(=O)Nc3ncns3)cc2F)cc(C(F)(F)F)c1 [Compound 24, 3-{2,5-difluoro-4-[(1,2,4-thiadiazol-5-yl)sulfamoyl]phenoxy}-5-(trifluoromethyl)benzamide] | 23600 | > 10000 | 3890 | > 32000 |  |
| O=C(NCc1cc(F)c(Oc2cc(Br)cc(C(F)(F)F)c2)cc1F)c1ncns1 [Compound 1, N-(4-(3-bromo-5-(trifluoromethyl)phenoxy)-2,5-difluorobenzyl)-1,2,4-thiadiazole-5-carboxamide] |  |  | 294 |  | < 1000 |
| CS(=O)(=O)NCc1cc(F)c(Oc2cc(C(F)(F)F)cc(C(F)(F)F)c2)cc1F [Compound 20, N-({4-[3,5-bis(trifluoromethyl)phenoxy]-2,5-difluorophenyl}methyl)methane-sulfonamide] | 5780 | ~1320 | ~1260 | 4260 |  |
| O=S(=O)(Nc1ncns1)c1cc(F)c(Oc2cc(F)cc(F)c2)cc1F [Compound 28, 4-(3,5-difluorophenoxy)-2,5-difluoro-N-(1,2,4-thiadiazol-5-yl)benzene-1-sulfonamide] | ~37900 | > 10000 | ~3960 | > 32000 |  |
| CN(c1ncns1)S(=O)(=O)c1cc(F)c(Oc2cc(Br)cc(C(F)(F)F)c2)cc1F [Compound 2, 4-(3-bromo-5-(trifluoromethyl)phenoxy)-2,5-difluoro-N-methyl-N-(1,2,4-thiadiazol-5-yl)benzenesulfonamide] |  |  | 484 |  | > 3200 |
| N#Cc1cc(Oc2cc(F)c(S(=O)(=O)Nc3ncns3)cc2F)cc(C(F)(F)F)c1 [Compound 27, 4-[3-cyano-5-(trifluoromethyl)phenoxy]-2,5-difluoro-N-(1,2,4-thiadiazol-5-yl)benzene-1-sulfonamide] | 18000 | ~32000 | 2170 | ~32000 |  |
| O=C(O)c1cc(Oc2cc(F)c(S(=O)(=O)Nc3ncns3)cc2F)cc(C(F)(F)F)c1 [Compound 23, 3-{2,5-difluoro-4-[(1,2,4-thiadiazol-5-yl)sulfamoyl]phenoxy}-5-(trifluoromethyl)benzoic] | > 32000 | > 10000 | > 10000 | > 32000 |  |

Second part, led by results:

| IC50 [1] [nM] | IC50 [2] [nM] | IC50 [3] [nM] | IC50 [4] [nM] | SMILES | IC50 [5] [nM] |
| --- | --- | --- | --- | --- | --- |
| ~6250 | ~2740 | 186 |  | COc1cc(Oc2cc(F)c(S(=O)(=O)Nc3ncns3)cc2F)cc(C(F)(F)F)c1 [Compound 34, 2,5-difluoro-4-[3-methoxy-5-(trifluoromethyl)phenoxy]-N-(1,2,4-thiadiazol-5-yl)benzene-1-sulfonamide] | 1600 |
| ~10000 | ~4910 | 118 |  | O=S(=O)(Nc1ncns1)c1cc(F)c(Oc2cc(Br)cc(C(F)(F)F)c2)cc1F [Compound 33, 4-[3-bromo-5-(trifluoromethyl)phenoxy]-2,5-difluoro-N-(1,2,4-thiadiazol-5-yl)benzene-1-sulfonamide] | ~4010 |
| 1880 | 120 | 225 | 1090 | NC1(C(=O)NCc2cc(-c3cc(C(F)(F)F)cc(C(F)(F)F)c3)cc(C(F)(F)F)c2)CCCC1 [Compound 53, 1-amino-N-((3′,5,5′-tris(trifluoromethyl)-[1,1′-biphenyl]-3-yl)methyl)cyclopentane-1-carboxamide] |  |
| 5620 | 176 | 160 | 12300 | CN1CCC[C@H]1C(=O)NCc1cccc(-c2cc(C(F)(F)F)cc(C(F)(F)F)c2)c1 [Compound 57, (2S)-N-({3-[3,5-bis(trifluoromethyl)phenyl]phenyl}methyl)-1-methylpyrrolidine-2-carboxamide] |  |
| ~11900 | > 10000 | 256 |  | O=S(=O)(Nc1ncns1)c1cc(F)c(Oc2cc(Cl)cc(C(F)(F)F)c2)cc1F [Compound 36, 4-[3-chloro-5-(trifluoromethyl)phenoxy]-2,5-difluoro-N-(1,2,4-thiadiazol-5-yl)benzene-1-sulfonamide] | ~4960 |
| ~17600 | > 10000 | ~413 |  | CCCOc1cc(Oc2cc(F)c(S(=O)(=O)Nc3ncns3)cc2F)cc(C(F)(F)F)c1 [Compound 37, 2,5-difluoro-4-[3-propoxy-5-(trifluoromethyl)phenoxy]-N-(1,2,4-thiadiazol-5-yl)benzene-1-sulfonamide] | 7210 |
| ~17100 |  | 1600 |  | CN(C)C(=O)c1cc(Oc2cc(F)c(S(=O)(=O)Nc3ncns3)cc2F)cc(C(F)(F)F)c1 [Compound 38, 3-{2,5-difluoro-4-[(1,2,4-thiadiazol-5-yl)sulfamoyl]phenoxy}-N,N-dimethyl-5-(trifluoromethyl)benzamide] | > 32000 |
| 2470 | 733 | 777 | 2750 | CN(Cc1cccc(-c2cc(C(F)(F)F)cc(C(F)(F)F)c2)c1)C(=O)[C@@H]1CCCN1 [Compound 58, (2S)-N-({3-[3,5-bis(trifluoromethyl)phenyl]phenyl}methyl)-N-methylpyrrolidine-2-carboxamide] |  |
| 8690 | 166 | 153 | 8730 | O=C(NCc1cccc(-c2cc(C(F)(F)F)cc(C(F)(F)F)c2)c1)[C@@H]1CCCN1S(=O)(=O)Nc1ccccc1 [Compound 59, (2S)-N-({3-[3,5-bis(trifluoromethyl)phenyl]phenyl}methyl)-1-(phenylsulfamoyl)pyrrolidine-2-carboxamide] |  |
